Data: patent US7608612B2, “Radiosensitizer formulations and methods for use” (priority 2005, dated 2009)
Entries after “also recorded” stand apart in the source; their conditions may differ.

Legend:
[1] = tested on: Chinese hamster ovary (CHO) cells; assay: In vitro study of 4(5)-nitrohistidine as a radiosensitizer, 300 cGy 9 MeV electron beam; assay type: cell-based
Method: FIG. 2A is an in vitro study of nitrohistidine on Chinese hamster ovary (CHO) cells. CHO cells were in use in an F12 medium with fetal calf serum. A 9 MeV electron beam was used to irradiate the Petri dishes, dose 300 cGy, and a concentration range of 1-4 mM nitrohistidine was employed.
FIG. 2B is an in vitro study of nitrohistidine compared to misonidazole on CHO cells.
An in vitro study using Chinese hamster ovary (CHO) cells was carried out using F12 medium with fetal calf serum for growth of the CHO cells. A 9 MeV electron beam, generated by a Varian Clinac 1800 instrument, was used to irradiate the Petri dishes, at a dose of 300 cGy, and a concentration of 1 to 4 mM 4(5)-nitrohistidine was added alone, or in combination with the radiation dose.

[2] = tested on: Chinese hamster ovary (CHO) cells; assay: In vitro study of 4(5)-nitrohistidine as a radiosensitizer under hypoxic conditions; assay type: cell-based; details: 30 min hypoxic pre-incubation
Lewis lung carcinoma [3] = assay: In vivo growth retardation experiment 1 with Lewis lung carcinoma; parameters: species or system mice (C-57)
Method: FIG. 4 is an in vivo Growth Retardation Study of Lewis lung carcinoma in […]. Groups of 5-6 mice were subcutaneously implanted with Lewis Lung Carcinoma cells and permitted to grow a small measurable tumor in the hind leg. Radiosensitizers were given by i.p. injection. In some comparative experiments, nitrohistidine was employed at half the concentration of misonidazole. The measurable tumors were treated with a single 500 cGy fraction of 9 MeV electrons.
FIG. 5 is a tumor size assessment plot from the Growth Retardation Study of FIG. 4, showing tumor size as a function of time (in days).
Groups of 5-6 mice (C-57) were subcutaneously implanted in the hind leg with Lewis lung carcinoma cells and the cells were permitted to grow until a measurable tumor was evident. Radiosensitizers were administered using i.p. injection at 2 mM concentration, and then treated with a single 500 cGy dose administered with a 9 MeV electron beam and tumor size measured daily for a period of 9 days. Control mice were implanted with tumor cells and left untreated.

Lewis lung carcinoma [4] = assay: In vivo growth retardation experiment 2 with Lewis lung carcinoma (comparison with misonidazole); parameters: species or system mice; details: for tumor growth course (in words): mice with Lewis lung carcinoma, radiosensitizer plus radiation
From the text: Another growth retardation study was done in mice implanted with Lewis lung carcinoma comparing 4(5)-nitrohistidine (NHis) plus radiation treatment to misonidazole plus radiation treatment.

protozoa = details: Brossi et al.; cited from earlier work
[5] = tested on: Chinese hamster ovary (CHO) cells; assay: In vitro synergism of buthionine sulfoximine and 4(5)-nitrohistidine as radiosensitizers; assay type: cell-based; details: compounds at 2 mM, radiation 0 to 10 Gy
Method: Buthionine sulfoximine is an agent known to deplete the levels of endogenous detoxifier and radioprotector glutathione. […] In several experiments, as here, the enhancement ration was greater than two with both agents present. CHO cells were used in the experiments and trhe compounds were present at 2 mM concentration as indicated.
Chinese hamster ovary cells were grown on F12 medium supplemented with fetal calf serum. Cells were treated with dosages of radiation from 0 to 10 Gy, using a 9 MeV electron beam as above, either alone or in the presence of nitrohistidine, buthionine sulfoximine, or 4(5)-nitrohistidine plus buthionine sulfoximine together. When present, the buthionine sulfoximine and 4(5)-nitrohistidine were added at 2 mM concentration. […] S. fractions remaining for the combined dual drug/radiation treatment indicate an initial lag time, before continued depletion of cells surviving, down to less than 0.01 SF at 10 Gy in the presence of both NHis and BSO. The enhancement ratio calculated for the combined treatment was greater than two over that of any other treatment combination.

tumors = details: number of trials out of all trials; cited from earlier work
[6] = first group of mice, NHis+XRT, day 9
[7] = second group of mice, NHis+XRT, day 9

Structure (SMILES)	toxicity of nitrohistidine alone (S. fraction, surviving fraction of cells) ([1]; 1-4 mM nitrohistidine, no radiation)	effective concentration range for radiosensitization ([1]; 300 cGy)	S. fraction (surviving fraction) in the presence of ionizing radiation (Nitro+XRT) ([1]; 300 cGy, all four concentrations 1 to 4 mM)	radiosensitizing effectiveness of 2 mM compared with 5 mM ([1]; additional studies, data not shown)	S. Fraction at 10 Gy ([2]; 2 mM plus radiation)	calculated enhancement ratio ([2]; 2 mM, at the 0.1 level SF value (90% killing), versus radiation alone)	growth retardation compared to the control group (Lewis lung carcinoma [3]; [6])	growth retardation compared to the group treated with radiation alone (Lewis lung carcinoma [3]; [6])	tumor size at day 9 (Lewis lung carcinoma [3]; first group of mice, NHis+XRT, i.p., single 500 cGy dose)	tumor size at day 9 (Lewis lung carcinoma [3]; second group of mice, NHis alone without radiation (same value given for control))	tumor size at day 9 (Lewis lung carcinoma [3]; second group of mice, NHis+XRT)	growth retardation compared to the XRT treatment alone (Lewis lung carcinoma [3]; [7])	growth retardation compared to the control or NHis alone (Lewis lung carcinoma [3]; [7])	tumor growth course (in words) (Lewis lung carcinoma [4])	in vivo radiosensitizer potency compared with misonidazole (Lewis lung carcinoma [4]; plus radiation, in vivo)	efficacy as an anti-protozoal agent relative to known anti-protozoal nitroimidazole agents (protozoa)	radiosensitization / synergism (in words) [5]	clinical trials that suggested any clinical benefit as a radiosensitizer (tumors)
NC(Cc1nc[nH]c1[N+](=O)[O-])C(=O)O (stereo not shown) [4(5)-nitrohistidine]	did not appear to possess toxicity by itself; also recorded: did not exhibit any toxicity	1 to 4 mM	under 0.6	nearly as effective as 5 mM	about 0.006	1.38	about 22%	about 10%	about 18 mm	about 21 mm	about 15 mm	~35%	about 29%	plateau in tumor growth after 9-10 days	more potent and effective radiosensitizer than misonidazole	zero	–	–
CCCCS(=N)(=O)CCC(N)C(=O)O (stereo not shown) [Buthionine sulfoximine, buthionine sulfoximine]	–	–	–	–	–	–	–	–	–	–	–	–	–	–	–	–	some radiosensitization properties of its own	–
COCC(O)Cn1ccnc1[N+](=O)[O-] (stereo not shown) [misonidazole, reference compound]	–	–	–	–	–	–	–	–	–	–	–	–	–	no ability to retard tumor growth	–	–	–	5 of 38
